Measurements from patent publication US20230203043A1, “NOVEL IMIDAZOPYRAZINE DERIVATIVES” (Hoffmann-La Roche Inc., priority 2020, published 2023).
Counter-ions that a name gives are not always drawn. Like-named read-outs stand apart in the source and are kept apart here.

System: Acinetobacter baumannii ATCC17961
Experiment: Antimicrobial susceptibility testing: 90% growth inhibitory concentration (IC90) determination in Iso-Sensitest broth, OD600 growth
Type: cell-based
How it was run: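 Compounds were twofold serially diluted in DMSO across 10 points (e.g. 50 to 0.097 μM final) and inoculated at ~5×10^(5) CFU/ml. Plates incubated at 35±2° C, with OD600 read every 20 minutes over 16 h. IC90 was derived from growth inhibition during logarithmic growth.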

[1] = Acinetobacter baumannii, ATCC17961, 16 h, strain ATCC 17961, OD600 growth over 16 h, read-out: A. baumannii ATCC 17961 IC90
[2] = Acinetobacter baumannii, ATCC17961, 16 h, read-out: A. baumannii ATCC 17961 IC90 (uM), strain ATCC 17961, OD600 growth over 16 h

IC90 [1] [µM]	SMILES	also measured
1.9	CCc1cc(Nc2nccn3c(-c4c[nH]nc4C(F)(F)F)cnc23)ccc1C(=O)N[C@H](C)CN [Example 145, N-[(2R)-1-aminopropan-2-yl]-2-ethyl-4-[[3-[3-(trifluoromethyl)-1H-pyrazol-4-yl]imidazo[1,2-a]pyrazin-8-yl]amino]benzamide trifluoroacetate]	
0.995	O=C(N[C@H]1CCN(C(=O)[C@@H]2C[C@@H](O)CN2)C1)c1ccc(Nc2nccn3c(-c4c[nH]nc4C(F)(F)F)cnc23)cc1Cl [Example 313, 2-chloro-N-[(3S)-1-[(2S,4R)-4-hydroxypyrrolidine-2-carbonyl]pyrrolidin-3-yl]-4-[[3-[3-(trifluoromethyl)-1H-pyrazol-4-yl]imidazo[1,2-a]pyrazin-8-yl]amino]benzamide]	
0.16	O=C(CNCCNC(=O)c1ccc(Nc2nccn3c(-c4cn(CC(F)F)nc4C(F)(F)F)cnc23)cc1Cl)NC1CNC1 [Example 821, N-(2-((2-(azetidin-3-ylamino)-2-oxoethyl)amino)ethyl)-2-chloro-4-(3-(1-(2,2-difluoroethyl)-3-(trifluoromethyl)-1H-pyrazol-4-yl)imidazo[1,2-a]pyrazin-8-yl)amino) benzamide formate]	
0.122	Cc1cc(Nc2nccn3c(-c4cn(CC(F)F)nc4C(F)(F)F)cnc23)cc(F)c1C(=O)NCCCCCCN [Example 615, N-(6-aminohexyl)-4-((3-(1-(2,2-difluoroethyl)-3-(trifluoromethyl)-1H-pyrazol-4-yl)imidazo[1,2-a]pyrazin-8-yl)amino)-2-fluoro-6-methylbenzamide]	
1.33	NC1CCN(C(=O)CNC(=O)c2ccc(Nc3nccn4c(-c5c[nH]nc5C(F)(F)F)cnc34)cc2Cl)CC1 [Example 136, N-[2-(4-aminopiperidin-1-yl)-2-oxoethyl]-2-chloro-4-[[3-[3-(trifluoromethyl)-1H-pyrazol-4-yl]imidazo[1,2-a]pyrazin-8-yl]amino]benzamide]	
	CCc1cc(Nc2nccn3c(-c4cn(CCF)nc4C(F)(F)F)cnc23)ccc1C(=O)NCCOCCCN [Example 610, N-(2-(3-aminopropoxy)ethyl)-2-ethyl-4-((3-(1-(2-fluoroethyl)-3-(trifluoromethyl)-1H-pyrazol-4-yl)imidazo [1,2-a]pyrazin-8-yl)amino)benzamide formate]	IC90 [2]: 0.099 µM
0.233	Cc1cc(Nc2nccn3c(-c4cn(CC#N)nc4C(F)(F)F)cnc23)ccc1C(=O)NCC(=O)N1CCC(N)CC1 [Example 503, N-[2-(4-amino-1-piperidyl)-2-oxo-ethyl]-4-[[3-[1-(cyanomethyl)-3-(trifluoromethyl)pyrazol-4-yl]imidazo[1,2-a]pyrazin-8-yl]amino]-2-methyl-benzamide formate]	
0.225	CCc1cc(Nc2nccn3c(-c4cn(CC(C)CO)nc4C(F)(F)F)cnc23)ccc1C(=O)NCCOCCN (stereo not drawn) [Example 267, N-[2-(2-aminoethoxy)ethyl]-2-ethyl-4-[[3-[1-(3-hydroxy-2-methylpropyl)-3-(trifluoromethyl)pyrazol-4-yl]imidazo[1,2-a]pyrazin-8-yl]amino]benzamide]	
	Cn1cc(Cn2cc(-c3cnc4c(Nc5ccc(C(=O)N6CCNCC6)c(Cl)c5)nccn34)c(C(F)(F)F)n2)cn1 [Example 134, [2-chloro-4-[[3-[1-[(1-methylpyrazol-4-yl)methyl]-3-(trifluoromethyl)pyrazol-4-yl]imidazo[1,2-a]pyrazin-8-yl]amino]phenyl]-piperazin-1-ylmethanone formate]	IC90 [2]: 0.768 µM
1.86	N[C@@H]1CCN(C(=O)CNC(=O)c2ccc(Nc3nccn4c(-c5c[nH]nc5C(F)(F)F)cnc34)cc2Cl)C1 [Example 137, N-[2-[(3R)-3-aminopyrrolidin-1-yl]-2-oxoethyl]-2-chloro-4-[[3-[3-(trifluoromethyl)-1H-pyrazol-4-yl]imidazo[1,2-a]pyrazin-8-yl]amino]benzamide]	
	CCc1cc(Nc2nccn3c(-c4cn(C(C)C#N)nc4C(F)(F)F)cnc23)ccc1C(=O)NCC1CC1N (stereo not drawn) [Example 700, N-((2-aminocyclopropyl)methyl)-4-((3-(1-(1-cyanoethyl)-3-(trifluoromethyl)-1H-pyrazol-4-yl)imidazo[1,2-a]pyrazin-8-yl)amino)-2-ethylbenzamide formate]	IC90 [2]: 0.382 µM
0.489	C#CCn1cc(-c2cnc3c(Nc4ccc(C(=O)N5CCN(C(=O)[C@H]6C[C@H](N)C6)CC5)c(CC)c4)nccn23)c(C(F)F)n1 [Example 734, (4-((1r,3r)-3-aminocyclobutane-1-earbonyl)piperazin-1-yl)(4-((3-(3-(difluoromethyl)-1-(prop-2-yn-1-yl)-1H-pyrazol-4-yl)imidazo[1,2-a]pyrazin-8-yl)amino)-2-ethylphenyl)methanone]	
0.2	NCC(=O)N1CCN(C(=O)c2ccc(Nc3nccn4c(-c5cn(CC(F)F)nc5C(F)(F)F)cnc34)cc2F)CC1 [Example 812, 2-amino-1-(4-(4-(3-(1-2,2-difluoroethyl)-3-(trifluoromethyl)-1H-pyrazol-4-yl)imidazo[1,2-a]pyrazin-8-yl)amino)-2-fluorobenzoyl) piperazin-1-yl) ethan-1-one hydrochloride]	
	NCCNC(=O)CN1CCN(C(=O)c2ccc(Nc3nccn4c(-c5cn(CC(F)F)nc5C(F)(F)F)cnc34)cc2Cl)CC1 [Example 598, N-(2-aminoethyl)-2-(4-(2-chloro-4-((3-(1-(2,2-difluoroethyl)-3-(trifluoromethyl)-1H-pyrazol-4-yl)imidazo[1,2-a]pyrazin-8-yl)amino)benzoyl)piperazin-1-yl)acetamide formate]	IC90 [2]: 0.359 µM
0.554	N#CCn1cc(-c2cnc3c(Nc4ccc(C(=O)N5CCC(NC(=O)C6CCNCC6)CC5)c(Cl)c4)nccn23)c(C(F)(F)F)n1 [Example 142, N-[1-[2-chloro-4-[[3-[1-(cyanomethyl)-3-(trifluoromethyl)pyrazol-4-yl]imidazo[1,2-a]pyrazin-8-yl]amino]benzoyl]piperidin-4-yl]piperidine-4-carboxamide]	
	Cc1cc(Nc2nccn3c(-c4cn(CC#N)nc4C(F)(F)F)cnc23)ccc1C(=O)N1CCN(C(=O)[C@H]2C[C@H](O)CN2)CC1 [Example 426, formic acid; 2-[4-[8-[4-[4-[(2R,4S)-4-hydroxypyrrolidine-2-carbonyl]piperazine-1-carbonyl]-3-methylanilino]imidazo[1,2-a]pyrazin-3-yl]-3-(trifluoromethyl)pyrazol-1-yl]acetonitrile]	IC90 [2]: 0.948 µM
0.257	Cc1cc(Nc2nccn3c(-c4c[nH]nc4C(F)(F)F)cnc23)ccc1C(=O)NCCOCCN [Example 360, N-[2-(2-aminoethoxy)ethyl]-2-methyl-4-[[3-[3-(trifluoromethyl)-1H-pyrazol-4-yl]imidazo[1,2-a]pyrazin-8-yl]amino]benzamide hydrochloride]	
	N#CCn1cc(-c2cnc3c(Nc4ccc(C(=O)N5CCN(C(=O)N6CCC(N)CC6)CC5)c(Cl)c4)nccn23)c(C(F)(F)F)n1 [Example 178, 2-[4-[8-4-[4-(4-aminopiperidine-1-carbonyl)piperazine-1-carbonyl]-3-chloroanilino]imidazo[1,2-a]pyrazin-3-yl]-3-(trifluoromethyl) pyrazol-1-yl]acetonitrile formate]	IC90 (strain ATCC 17961, OD600 growth over 16 h, read-out: A. baumannii ATCC 17961 IC90): 0.161 µM
